Experimental data taken from patent publication US20070128217A1 (priority 2003, published 2007).

Experiments:
[1] = tested on: control sera (pooled serum of ten healthy LUMC hospital workers; commercial negative donor pooled serum from the Dutch bloodbank); format: binding, human; parameters: Binding of Control serum LUMC to linear peptides / Binding of Control serum Blood-bank to linear peptides / Binding of Control serum LUMC to looped peptides / Binding of Control Serum Blood-Bank to Looped peptides / Binding of Control serum LUMC to linear peptides of the protein M of SARS-CoV Urbani / Binding of Control serum Blood-bank to linear peptides of the protein M of SARS-CoV Urbani / Binding of Control serum LUMC to looped peptides of the protein M of SARS-CoV Urbani / Binding of Control Serum Blood-Bank to Looped peptides of the protein M of SARS-CoV Urbani: unit not given here
[2] = tested on: antibodies in sera from SARS patients (sera 1a, 1b, 2, 6, 37, 62, London, SARS-yellow, SARS-green); format: binding, human; parameters: Binding of serum 6 to linear peptides of protein X1 of SARS-CoV Urbani / Binding of serum 37 to linear peptides of protein X1 of SARS-CoV Urbani / Binding of serum 6 to looped/cyclic peptide (PEPSCAN-ELISA) / Binding of serum 37 to looped/cyclic peptide (PEPSCAN-ELISA) / Binding of serum 37 to looped/cyclic peptides of protein X1 of SARS-CoV Urbani / Binding of serum 6 to linear peptides of protein X2 / Binding of serum 37 to linear peptides of protein X2 / Binding of serum 37 to looped/cyclic peptides of protein X2 of SARS-CoV Urbani / Binding of serum 6 to linear peptides of protein M of SARS-CoV Urbani / Binding of serum 37 to linear peptides of protein M of SARS-CoV Urbani / Binding of serum 6 to looped/cyclic peptides of protein M of SARS-CoV Urbani / Binding of serum 37 to looped/cyclic peptides of protein M of SARS-CoV Urbani / Binding of serum 6 to linear peptides of protein X3 of SARS-CoV Urbani / Binding of serum 37 to linear peptides of protein X3 of SARS-CoV Urbani / Binding of serum 37 to looped/cyclic peptides of protein X3 of SARS-CoV Urbani / Binding of serum 6 to linear peptides of protein X4 of SARS-CoV Urbani / Binding of serum 37 to linear peptides of protein X4 of SARS-CoV Urbani / Binding of serum 37 to looped/cyclic peptides of protein X4 of SARS-CoV Urbani / Binding of serum 6 to linear peptides of protein X5 of SARS-CoV Urbani / Binding of serum 37 to linear peptides of protein X5 of SARS-CoV Urbani / Binding of serum 37 to looped/cyclic peptides of protein X5 of SARS-CoV Urbani / Binding of serum 6 to linear peptides of protein N of SARS-CoV Urbani / Binding of serum 37 to linear peptides of protein N of SARS-CoV Urbani / Binding of serum 6 to linear peptide (PEPSCAN-ELISA) / Binding of serum 1a to looped/cyclic peptides of protein N of SARS-CoV Urbani / Binding of serum 1b to looped/cyclic peptides of protein N of SARS-CoV Urbani / Binding of serum 2 to looped/cyclic peptides of protein N of SARS-CoV Urbani / Binding of serum 6 to looped/cyclic peptides of protein N of SARS-CoV Urbani / Binding of serum 37 to looped/cyclic peptides of protein N of SARS-CoV Urbani / Binding of serum 62 to looped/cyclic peptides of protein N of SARS-CoV Urbani / Binding of serum London to looped/cyclic peptides of protein N of SARS-CoV Urbani / Binding of serum SARS-green to looped/cyclic peptides of protein N of SARS-CoV Urbani: unit not given here
[3] = tested on: rabbit serum obtained by immunizing a rabbit with the SARS-CoV strain Frankfurt 1; format: binding; parameters: Binding of a rabbit serum to linear peptides / Binding of a rabbit serum to looped peptides / Rabbit serum linear peptides / Rabbit serum looped peptides / Binding of a rabbit serum to linear peptides of protein N of SARS-CoV Urbani (Rabbit serum linear peptides) / Binding of a rabbit serum to looped/cyclic peptides of protein N of SARS-CoV Urbani (Rabbit serum looped peptides): unit not given here

Sequence	Binding of Control Serum Blood-Bank to Looped peptides [1]	Binding of Control serum Blood-bank to linear peptides [1]	Binding of Control serum LUMC to linear peptides [1]	Binding of Control serum LUMC to looped peptides [1]	Binding of serum 1a to linear peptides of protein X5 of SARS-CoV Urbani [2]	Binding of serum 1a to looped/cyclic peptides of protein X5 of SARS-CoV Urbani [2]	Binding of serum 1b to linear peptides of protein X5 of SARS-CoV Urbani [2]	Binding of serum 1b to looped/cyclic peptides of protein X5 of SARS-CoV Urbani [2]	Binding of serum 2 to linear peptides of protein X5 of SARS-CoV Urbani [2]	Binding of serum 2 to looped/cyclic peptides of protein X5 of SARS-CoV Urbani [2]	Binding of serum 6 to linear peptides of protein X5 of SARS-CoV Urbani [2]	Binding of serum 6 to looped/cyclic peptides of protein X5 of SARS-CoV Urbani [2]	Binding of serum 37 to linear peptides of protein X5 of SARS-CoV Urbani [2]	Binding of serum 37 to looped/cyclic peptides of protein X5 of SARS-CoV Urbani [2]	Binding of serum 62 to linear peptides of protein X5 of SARS-CoV Urbani [2]	Binding of serum 62 to looped/cyclic peptides of protein X5 of SARS-CoV Urbani [2]	Binding of serum London to linear peptides of protein X5 of SARS-CoV Urbani [2]	Binding of serum London to looped/cyclic peptides of protein X5 of SARS-CoV Urbani [2]	Binding of serum SARS-green to linear peptides of protein X5 of SARS-CoV Urbani [2]	Binding of serum SARS-green to looped/cyclic peptides of protein X5 of SARS-CoV Urbani [2]	further results
GALIARCWYLHEGHQ	0.3	0.6	0.4	0.2	0.7	0.4	0.6	0.4	0.6	0.7	0.7	0.3	0.7	0.4	0.7	0.3	0.6	0.1	0.6	0.8	Binding of serum SARS-yellow to linear peptides of protein X5 of SARS-CoV Urbani [2]: 0.1; Binding of serum SARS-yellow to looped/cyclic peptides of protein X5 of SARS-CoV Urbani [2]: 0.3; Rabbit serum linear peptides [3]: 0.6; Rabbit serum looped peptides [3]: 0.0
GKVLPFHRWHTMVQT	0.5	0.6	0.3	0.5	0.8	0.8	0.0	0.5	0.6	0.6	0.3	0.4	0.5	0.6	0.8	0.5	0.8	0.3	0.3	0.5	Binding of serum SARS-yellow to linear peptides of protein X5 of SARS-CoV Urbani [2]: 0.1; Binding of serum SARS-yellow to looped/cyclic peptides of protein X5 of SARS-CoV Urbani [2]: 0.4; Rabbit serum linear peptides [3]: 0.0; Rabbit serum looped peptides [3]: 0.3
GMEAQFLYLYALIYF	0.5	0.4	0.6	0.8																	Binding of serum 1a to linear peptides of protein X1 of SARS-CoV Urbani [2]: 0.8; Binding of serum 1a to looped/cyclic peptide (PEPSCAN-ELISA) [2]: 0.6; Binding of serum 1b to linear peptides of protein X1 of SARS-CoV Urbani [2]: 0.6; Binding of serum 1b to looped/cyclic peptide (PEPSCAN-ELISA) [2]: 0.4; Binding of serum 2 to linear peptides of protein X1 of SARS-CoV Urbani [2]: 0.6; Binding of serum 2 to looped/cyclic peptide (PEPSCAN-ELISA) [2]: 0.5; Binding of serum 6 to linear peptides of protein X1 of SARS-CoV Urbani [2]: 0.5; Binding of serum 6 to looped/cyclic peptide (PEPSCAN-ELISA) [2]: 0.3; Binding of serum 37 to linear peptides of protein X1 of SARS-CoV Urbani [2]: 0.5; Binding of serum 37 to looped/cyclic peptide (PEPSCAN-ELISA) [2]: 0.4; Binding of serum 62 to linear peptides of protein X1 of SARS-CoV Urbani [2]: 0.4; Binding of serum 62 to looped/cyclic peptide (PEPSCAN-ELISA) [2]: 0.5; Binding of serum London to linear peptides of protein X1 of SARS-CoV Urbani [2]: 0.2; Binding of serum London to looped/cyclic peptide (PEPSCAN-ELISA) [2]: 0.2; Binding of serum SARS-green to linear peptides of protein X1 of SARS-CoV Urbani [2]: 0.1; Binding of serum SARS-green to looped/cyclic peptide (PEPSCAN-ELISA) [2]: 0.3; Binding of serum SARS-yellow to linear peptides of protein X1 of SARS-CoV Urbani [2]: 0.3; Binding of serum SARS-yellow to looped/cyclic peptide (PEPSCAN-ELISA) [2]: 0.4; Binding of a rabbit serum to linear peptides [3]: 0.1; Binding of a rabbit serum to looped peptides [3]: 0.6
